Measured values published in PubChem BioAssay AID248 (DTP/NCI, 2004).
Where “and” joins values, the source holds several entries; their conditions need not be identical. Equal values may be shown once. Inconclusive results and toxic doses are left out. Cut-off read from the data, not from the text of the source: active = T/C of 150% or more; inactive = T/C below 125%.

Tested on: L1210 leukemia ip in BDF1 mice, survival T/C
Assay: NCI In Vivo Anticancer Drug Screen. Data for tumor model L1210 Leukemia (intraperitoneal) in B6D2F1 (BDF1) mice
Conditions: endpoint: mean survival time, higher = longer survival
How it was run: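 Tumor cells were implanted, animals were treated, and survival was followed. The result divides the treated measurement by the vehicle-control measurement.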

[1] = dose: 100.0 mg/kg/injection, schedule: Q04DX003 (ip), vehicle: Klucel (hydroxypropylcellulose) (HPC)
[2] = dose: 100.0 mg/kg/injection, schedule: Q04DX003 (ip), vehicle: saline with Tween-80
[3] = dose: 100.0 mg/kg/injection, schedule: Q04DX003 (ip), vehicle: saline
[4] = dose: 200.0 mg/kg/injection, schedule: Q04DX003 (ip), vehicle: saline
[5] = dose: 400.0 mg/kg/injection, schedule: Q04DX003 (ip), vehicle: saline
[6] = dose: 100.0 mg/kg/injection, schedule: Q01DX009 (ip), vehicle: saline with Tween-80
[7] = dose: 100.0 mg/kg/injection, schedule: Q04DX002 (ip), vehicle: saline with Tween-80
[8] = dose: 200.0 mg/kg/injection, schedule: Q01DX009 (ip), vehicle: saline with Tween-80
[9] = dose: 200.0 mg/kg/injection, schedule: Q04DX002 (ip), vehicle: saline with Tween-80
[10] = dose: 200.0 mg/kg/injection, schedule: Q04DX003 (ip), vehicle: saline with Tween-80
[11] = dose: 100.0 mg/kg/injection, schedule: Q01DX001 (ip), vehicle: saline
[12] = dose: 200.0 mg/kg/injection, schedule: Q01DX001 (ip), vehicle: saline
[13] = dose: 400.0 mg/kg/injection, schedule: Q01DX001 (ip), vehicle: saline

Measured: T/C

CCCCCCCCCCCCCC[N+](C)(C)Cc1cc(=O)c(O)co1
inactive: dose: 12.5 mg/kg/injection, schedule: Q01DX015 (ip), vehicle: saline 97 % of control | dose: 25.0 mg/kg/injection, schedule: Q01DX015 (ip), vehicle: saline 102 % of control | dose: 25.0 mg/kg/injection, schedule: Q04DX003 (ip), vehicle: saline with Tween-80 97 % of control | dose: 50.0 mg/kg/injection, schedule: Q01DX015 (ip), vehicle: saline 96 % of control | dose: 50.0 mg/kg/injection, schedule: Q04DX003 (ip), vehicle: saline with Tween-80 101 % of control | dose: 100.0 mg/kg/injection, schedule: Q01DX015 (ip), vehicle: saline 106 % of control | [1] 87 % of control | [2] 101 % of control

c1ccc(CCNc2ncnc3[nH]ncc23)cc1
inactive: dose: 12.0 mg/kg/injection, schedule: Q01DX015 (ip), vehicle: carboxymethylcellulose (CMC) 97 % of control | dose: 25.0 mg/kg/injection, schedule: Q01DX015 (ip), vehicle: carboxymethylcellulose (CMC) 97 % of control | dose: 50.0 mg/kg/injection, schedule: Q01DX015 (ip), vehicle: carboxymethylcellulose (CMC) 95 % of control

CC(N)(CCCN)C(=O)O (stereo not drawn)
inactive: dose: 100.0 mg/kg/injection, schedule: Q01DX009 (ip), vehicle: saline 102 % of control | [3] 104 % of control | dose: 200.0 mg/kg/injection, schedule: Q01DX009 (ip), vehicle: saline 102 % of control | [4] 102 % of control | dose: 400.0 mg/kg/injection, schedule: Q01DX009 (ip), vehicle: saline 94 % of control | [5] 101 % of control

O=C(O)/C=C/Sc1ccc(Cl)cc1
inactive: dose: 50.0 mg/kg/injection, schedule: Q01DX009 (ip), vehicle: saline with Tween-80 94 % of control | [6] 94 % of control | [7] 95 % of control | [8] 94 % of control | [9] 92 % of control

O=C(NCCNC(=O)Nc1ccc(Cl)cc1)Nc1ccc(Cl)cc1
inactive: dose: 100.0 mg/kg/injection, schedule: Q01DX009 (ip), vehicle: Klucel (hydroxypropylcellulose) (HPC) 96 % of control | [1] 98 % of control | dose: 200.0 mg/kg/injection, schedule: Q01DX009 (ip), vehicle: Klucel (hydroxypropylcellulose) (HPC) 94 % of control | dose: 200.0 mg/kg/injection, schedule: Q04DX003 (ip), vehicle: Klucel (hydroxypropylcellulose) (HPC) 93 % of control | dose: 400.0 mg/kg/injection, schedule: Q01DX009 (ip), vehicle: Klucel (hydroxypropylcellulose) (HPC) 91 % of control | dose: 400.0 mg/kg/injection, schedule: Q04DX003 (ip), vehicle: Klucel (hydroxypropylcellulose) (HPC) 92 % of control

CC(=O)OC1CCC2(C)C3=C(CCC2C1(C)C)C1(C)CCC(c2ccc(C(C)C)oc2=O)C1(C)CC3 (stereo not drawn)
inactive: dose: 100.0 mg/kg/injection, schedule: Q01DX001 (sc), vehicle: steriod suspending solution 103 % of control | dose: 200.0 mg/kg/injection, schedule: Q01DX001 (sc), vehicle: steriod suspending solution 106 % of control | dose: 400.0 mg/kg/injection, schedule: Q01DX001 (sc), vehicle: steriod suspending solution 103 % of control

C=C(C)C1CCC(C)=CC1c1c(OC(=O)c2cc([N+](=O)[O-])cc([N+](=O)[O-])c2)cc(CCCCC)cc1OC(=O)c1cc([N+](=O)[O-])cc([N+](=O)[O-])c1 (stereo not drawn)
inactive: dose: 100.0 mg/kg/injection, schedule: Q01DX001 (ip), vehicle: Klucel (hydroxypropylcellulose) (HPC) 92 % of control | dose: 200.0 mg/kg/injection, schedule: Q01DX001 (ip), vehicle: Klucel (hydroxypropylcellulose) (HPC) 91 % of control | dose: 400.0 mg/kg/injection, schedule: Q01DX001 (ip), vehicle: Klucel (hydroxypropylcellulose) (HPC) 92 % of control

O=S(=O)(/C=C/c1ccccc1)Oc1ccc(-c2ccccc2)cc1
inactive: dose: 100.0 mg/kg/injection, schedule: Q01DX001 (ip), vehicle: acetone 104 % of control | dose: 100.0 mg/kg/injection, schedule: Q01DX009 (ip), vehicle: acetone 90 % of control | dose: 100.0 mg/kg/injection, schedule: Q04DX003 (ip), vehicle: acetone 97 % of control | dose: 200.0 mg/kg/injection, schedule: Q01DX001 (ip), vehicle: acetone 98 % of control | dose: 200.0 mg/kg/injection, schedule: Q04DX003 (ip), vehicle: acetone 91 % of control | dose: 400.0 mg/kg/injection, schedule: Q01DX001 (ip), vehicle: acetone 98 % of control | dose: 400.0 mg/kg/injection, schedule: Q01DX009 (ip), vehicle: acetone 90 % of control | dose: 400.0 mg/kg/injection, schedule: Q04DX003 (ip), vehicle: acetone 91 % of control

CC(=O)N(CCC#N)CCC#N
inactive: [3] 95 % of control | [4] 96 % of control | [5] 93 % of control

CC(=O)c1cccc(NC(=O)Oc2cc(C)c(Cl)c(C)c2)c1
inactive: dose: 100.0 mg/kg/injection, schedule: Q01DX001 (ip), vehicle: saline with Tween-80 97 % of control | [6] 94 % of control and 92 % of control | [7] 94 % of control and 101 % of control | [2] 93 % of control | dose: 200.0 mg/kg/injection, schedule: Q01DX001 (ip), vehicle: saline with Tween-80 100 % of control | [8] 88 % of control and 89 % of control | [9] 93 % of control and 89 % of control | [10] 87 % of control | dose: 400.0 mg/kg/injection, schedule: Q01DX001 (ip), vehicle: saline with Tween-80 98 % of control | dose: 400.0 mg/kg/injection, schedule: Q01DX009 (ip), vehicle: saline with Tween-80 91 % of control | dose: 400.0 mg/kg/injection, schedule: Q04DX002 (ip), vehicle: saline with Tween-80 96 % of control and 101 % of control | dose: 400.0 mg/kg/injection, schedule: Q04DX003 (ip), vehicle: saline with Tween-80 90 % of control

NC(=Nc1ccc([N+](=O)[O-])cc1)c1ccc(C(N)=Nc2ccc([N+](=O)[O-])cc2)cc1
inactive: dose: 6.25 mg/kg/injection, schedule: Q01DX015 (ip), vehicle: methylcellulose (MC) 102 % of control | dose: 12.5 mg/kg/injection, schedule: Q01DX015 (ip), vehicle: methylcellulose (MC) 100 % of control | dose: 25.0 mg/kg/injection, schedule: Q01DX015 (ip), vehicle: methylcellulose (MC) 96 % of control | dose: 50.0 mg/kg/injection, schedule: Q01DX015 (ip), vehicle: methylcellulose (MC) 93 % of control | dose: 62.5 mg/kg/injection, schedule: Q01DX015 (ip), vehicle: methylcellulose (MC) 90 % of control

O=C(CCl)Nc1ccc(N=Nc2ccccc2)cc1
inactive: dose: 25.0 mg/kg/injection, schedule: Q01DX009 (ip), vehicle: Klucel (hydroxypropylcellulose) (HPC) 90 % of control | dose: 50.0 mg/kg/injection, schedule: Q01DX009 (ip), vehicle: Klucel (hydroxypropylcellulose) (HPC) 90 % of control

CCCCCC(=O)Nc1cccc(O)c1
inactive: [2] 92 % of control | [10] 98 % of control

O=C(CBr)Nc1ccc(S(=O)(=O)F)cc1
inactive: dose: 2.34 mg/kg/injection, schedule: Q01DX009 (ip), vehicle: carboxymethylcellulose (CMC) 94 % of control | dose: 4.68 mg/kg/injection, schedule: Q01DX009 (ip), vehicle: carboxymethylcellulose (CMC) 86 % of control | dose: 9.37 mg/kg/injection, schedule: Q01DX009 (ip), vehicle: carboxymethylcellulose (CMC) 86 % of control | dose: 18.75 mg/kg/injection, schedule: Q04DX003 (ip), vehicle: carboxymethylcellulose (CMC) 101 % of control | dose: 75.0 mg/kg/injection, schedule: Q01DX001 (ip), vehicle: carboxymethylcellulose (CMC) 94 % of control

Brc1ccc(-c2nc3ccccc3c(Br)c2Br)cc1
inactive: [11] 90 % of control | [12] 94 % of control | [13] 90 % of control

Cc1ccc(N=Nc2ccccn2)cc1
inactive: dose: 100.0 mg/kg/injection, schedule: Q04DX002 (ip), vehicle: Klucel (hydroxypropylcellulose) (HPC) 104 % of control | dose: 200.0 mg/kg/injection, schedule: Q04DX002 (ip), vehicle: Klucel (hydroxypropylcellulose) (HPC) 93 % of control | dose: 400.0 mg/kg/injection, schedule: Q04DX002 (ip), vehicle: Klucel (hydroxypropylcellulose) (HPC) 93 % of control

c1ccc2nc3c(cc2c1)[nH]c1ccccc13
inactive: dose: 100.0 mg/kg/injection, schedule: Q04DX002 (ip), vehicle: gum acacia 92 % of control | dose: 200.0 mg/kg/injection, schedule: Q04DX002 (ip), vehicle: gum acacia 106 % of control | dose: 400.0 mg/kg/injection, schedule: Q04DX002 (ip), vehicle: gum acacia 103 % of control

O=C(Nc1ccc(S(=O)(=O)NC2CCCCC2)cc1)OC1CCCCCCC1
inactive: [11] 89 % of control | [12] 94 % of control | [13] 96 % of control
